Test results as given in ChEMBL document CHEMBL3853284, “Bioactive Dihydro-β-agarofuran Sesquiterpenoids from the Australian Rainforest Plant Maytenus bilocularis” (J Nat Prod, 2016).
pIC50: −log10 of the molar value.

Assays:
[1] = Cytotoxicity against human LNCAP cells assessed as cell viability inhibition at 10 uM after 72 hrs by Alamar blue assay; type: functional
[2] = Potentiation of vinblastin-induced cytotoxicity against human CEM cells at 5 uM after 72 hrs by Alamar blue assay relative to control; type: functional, CCRF-CEM
[3] = test system: CCRF-CEM VCR/R; test: Inhibition of P-gp in human CCRF-CEM VCR/R cells assessed as potentiation of vinblastin-induced cytotoxicity at 5 uM after 72 hrs by Alamar blue assay relative to control; type: cell-based
[4] = biological target: T1, Large neutral amino acids transporter small subunit 3 (Homo sapiens) (UniProt O75387); test: Inhibition of LAT3 in human LNCAP cells assessed as inhibition of [3H]L-leucine uptake at 10 mM after 15 mins by liquid scintillation counting method relative to control; type: cell-based
T1 sequence (whole entry): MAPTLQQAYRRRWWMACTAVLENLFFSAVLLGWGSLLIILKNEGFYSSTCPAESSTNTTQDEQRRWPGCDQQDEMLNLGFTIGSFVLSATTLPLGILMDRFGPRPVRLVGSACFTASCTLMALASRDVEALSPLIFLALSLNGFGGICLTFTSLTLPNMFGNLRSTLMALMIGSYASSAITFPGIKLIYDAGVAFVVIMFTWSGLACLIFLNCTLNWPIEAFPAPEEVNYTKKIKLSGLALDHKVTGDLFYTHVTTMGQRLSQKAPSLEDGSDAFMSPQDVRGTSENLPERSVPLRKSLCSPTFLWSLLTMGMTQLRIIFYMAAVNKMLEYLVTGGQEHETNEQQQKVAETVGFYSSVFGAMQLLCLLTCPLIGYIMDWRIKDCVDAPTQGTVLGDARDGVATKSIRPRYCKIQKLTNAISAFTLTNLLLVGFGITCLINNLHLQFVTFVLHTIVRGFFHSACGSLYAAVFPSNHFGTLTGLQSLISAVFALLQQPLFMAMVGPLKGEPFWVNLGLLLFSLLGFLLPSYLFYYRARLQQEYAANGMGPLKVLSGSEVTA

[5] = biological target: T2, Large neutral amino acids transporter small subunit 3 (Homo sapiens, UniProt O75387); test: Inhibition of LAT3 in human LNCAP cells assessed as inhibition of [3H]L-leucine uptake after 15 mins by liquid scintillation counting method; type: cell-based
T2 sequence (O75387 whole entry): T1 sequence (whole entry)

[6] = biological target: T1, Large neutral amino acids transporter small subunit 3 (Homo sapiens); test: Inhibition of LAT3 in human LNCAP cells assessed as inhibition of [3H]L-leucine uptake at 10 uM after 15 mins by liquid scintillation counting method relative to control; type: cell-based

Compound | inhibition at 10 µM [1] [%] | fold change (FC) [2] | fold change (FC) [3] | other results
CC(=O)OC[C@@]12[C@@H](OC(C)=O)CC[C@@H](C)[C@]13OC(C)(C)[C@H]([C@@H](OC(=O)c1ccccc1)[C@H]2OC(=O)c1ccccc1)[C@H]3OC(C)=O | 21.2 | 2.1 | 131 | 
CC(=O)OC[C@@]12[C@@H](OC(C)=O)CC[C@@H](C)[C@]13OC(C)(C)[C@H]([C@@H](OC(C)=O)[C@H]2OC(=O)c1ccccc1)[C@H]3OC(C)=O | > 30 |  |  | 
CC(=O)O[C@H]1CC[C@@H](C)[C@]23OC(C)(C)[C@H](C[C@H](OC(=O)c4ccccc4)[C@]12C)[C@H]3OC(C)=O | > 30 |  |  | 
CC(=O)OC[C@@]12[C@@H](OC(C)=O)CC[C@@H](C)[C@]13OC(C)(C)[C@H]([C@@H](OC(=O)c1ccc(Br)cc1)[C@H]2OC(=O)c1ccccc1)[C@H]3OC(C)=O | > 30 |  |  | 
NC1(C(=O)O)CC2CCC1C2 (stereo not given) |  |  |  | inhibition [4]: 40.2%
CC(=O)O[C@@H]1[C@@H]2[C@@H](OC(C)=O)[C@]3(OC2(C)C)[C@H](C)CC[C@H](OC(C)=O)[C@@]3(C)[C@@H]1OC(=O)c1ccccc1 | 14.6 | 2 | 61 | pIC50 [5]: 4.81
CC(=O)OC[C@@]12[C@@H](OC(C)=O)CC[C@@H](C)[C@]13OC(C)(C)[C@H]([C@@H](OC(=O)C(C)(C)C)[C@H]2OC(=O)c1ccccc1)[C@H]3OC(C)=O | 25.6 | 1.5 | 124 | 
CC(=O)OC[C@@]12[C@@H](OC(C)=O)CC[C@@H](C)[C@]13OC(C)(C)[C@H](C(=O)[C@H]2OC(=O)c1ccccc1)[C@H]3OC(C)=O | > 30 | 1.9 | 50.6 | pIC50 [5]: 3.82
CC(=O)OC[C@@]12[C@@H](OC(C)=O)CC[C@@H](C)[C@]13OC(C)(C)[C@H]([C@@H](O)[C@H]2OC(=O)c1ccccc1)[C@H]3OC(C)=O | > 30 | 1.7 | 36.3 | pIC50 [5]: 3.90
CC(=O)O[C@H]1CC[C@@H](C)[C@]23OC(C)(C)[C@H]([C@@H](O)[C@@H](OC(=O)c4ccccc4)[C@]12C)[C@H]3OC(C)=O | > 30 |  |  | 
CC(=O)OC[C@@]12[C@@H](OC(C)=O)CC[C@@H](C)[C@]13OC(C)(C)[C@H](C[C@@H]2OC(=O)c1ccccc1)[C@H]3OC(C)=O | > 30 |  |  | 
COCC(=O)O[C@@H]1[C@@H]2[C@@H](OC(C)=O)[C@]3(OC2(C)C)[C@H](C)CC[C@H](OC(C)=O)[C@@]3(COC(C)=O)[C@@H]1OC(=O)c1ccccc1 | > 30 |  |  | 
CC(=O)OC[C@@]12[C@@H](OC(C)=O)CC[C@@H](C)[C@]13OC(C)(C)[C@H]([C@@H](O)[C@@H]2OC(=O)c1ccccc1)[C@H]3OC(C)=O | > 30 |  |  | 
CC(=O)OC[C@@]12[C@@H](OC(C)=O)CC[C@@H](C)[C@]13OC(C)(C)[C@H]([C@@H](OC(C)=O)[C@H]2OC(=O)c1ccccc1)[C@H]3O | > 30 |  |  | 
COc1ccc(CCN(C)CCCC(C#N)(c2ccc(OC)c(OC)c2)C(C)C)cc1OC (stereo not given) [VERAPAMIL] |  | 2.8 | 64.5 | inhibition [6]: 82.7%
